{
  "source": "patent US20260083720A1",
  "about": "(Vyluma Inc., priority 2022, published 2026)",
  "origin": "cited, not measured here",
  "key": {"myopia progression [1]": {"tested_on": "myopia progression", "conditions": "Hieda et al., atropine group"}, "myopia progression [2]": {"tested_on": "myopia progression", "conditions": "Wei et al., atropine-placebo group"}, "myopia progression [3]": {"tested_on": "myopia progression", "conditions": "Chan, 0.01% concentration, period of 6 months"}, "myopia progression [4]": {"tested_on": "myopia progression", "conditions": "Yam et al., atropine at 0.01%; dose-dependent between 0.05% and 0.01%"}},
  "data": [
    {"smiles": "CN1[C@@H]2CC[C@H]1C[C@@H](OC(=O)C(CO)c1ccccc1)C2", "note": "(some centres unmarked) [atropine]", "values": [
      {"measurement": "mean AL changes at 24 mo", "setting": "myopia progression [1]; placebo 0.77", "value": 0.63, "unit": "mm"},
      {"measurement": "Mean SER changes at 24 mo", "setting": "myopia progression [1]; placebo −1.48", "value": "−1.26", "unit": "D"},
      {"measurement": "mean myopia progression after 24 months", "setting": "myopia progression [2]", "value": "−1.26", "unit": "D"},
      {"measurement": "changes in mean SER and AL", "setting": "myopia progression [3]", "value": "can be reduced"},
      {"measurement": "effect of atropine on myopia progression", "setting": "myopia progression [4]", "value": "only relatively small effects"}
    ]}
  ]
}
